Laboratory results published in patent US11807906B2, “Peroxisome biomarkers in HIV disease progression and peroxisome activating drugs for HIV treatment” (priority 2017, dated 2023).
Entries after “also recorded” stand apart in the source; their conditions may differ.

How the values were obtained:
HIV = HIV p24 ELISA in niclosamide-pretreated HeLa CD4+ cells; format: cell-based; settings: HeLa CD4+ cells pretreated 24 hrs, HIV MOI=0.5, 48 hrs, vs DMSO, FIG. 17
Procedure: HeLa CD4+ cells were pretreated with the indicated concentrations of the peroxisome proliferator, niclosamide for 24 hrs or DMSO alone (vehicle control). Cells were then infected with HIV, MOI=0.5) for 48 hrs after which levels of the viral protein p24 were measured by ELISA.

peroxisomal protein PEX7 = test: PEX7 immunoblot in niclosamide-pretreated HIV-infected HeLa CD4+ cells; format: cell-based, human; settings: 48 hrs, relative to DMSO
Procedure: (§1) HeLa CD4+ cells were pretreated with the indicated concentrations of the peroxisome proliferator, niclosamide for 24 hrs or DMSO alone (vehicle control). Cells were then infected with HIV, MOI=0.5) for 48 hrs after which levels of the viral protein p24 and peroxisomal protein were measured by immunoblotting. Actin served as loading control.

HIV p24 protein = test: HIV p24 immunoblot in niclosamide-pretreated HeLa CD4+ cells; format: cell-based; settings: HeLa CD4+ cells pretreated 24 hrs, HIV MOI=0.5, 48 hrs, relative to DMSO, FIG. 18/19
Procedure: as §1

[1] = system: niclosamide-treated cells; test: Relative cell viability by ATP levels in cell lysates; format: cell-based; settings: below 1 micromolar, 72 hours, vs DMSO, FIG. 20
Procedure: Cells treated with niclosamide or DMSO were harvested after 72 hours. Relative cell viability was determined by measuring ATP levels in the cell lysates.

For `O=C(Nc1ccc([N+](=O)[O-])cc1Cl)c1cc(Cl)ccc1O` [niclosamide, 5-chloro-N-(2-chloro-4-nitrophenyl)-2-hydroxybenzamide], the “HIV replication (levels of viral protein p24 by ELISA)” value (HIV) was “potently and significantly inhibits HIV replication”, the “HIV replication (levels of viral protein p24 by ELISA)” value (HIV; listed as Niclosamide) was “significantly inhibited HIV replication” and the “PEX7 protein level by immunoblotting” value (peroxisomal protein PEX7; FIG. 19) was “increases expression”. The “PEX7 protein level by immunoblotting” value (peroxisomal protein PEX7; FIG. 19, listed as Niclosamide) was “increased expression”, the “HIV p24 protein level by immunoblotting” value (HIV p24 protein) was “inhibits expression; also recorded: inhibits HIV replication” and the “HIV p24 protein level by immunoblotting” value (HIV p24 protein; listed as Niclosamide) was “inhibited expression; also recorded: inhibited HIV replication”. The “cytotoxicity (relative cell viability, ATP levels)” value [1] was “not cytotoxic”.
